This is an account of results in PubChem BioAssay (NCI).

Test systems include ACHN renal; DU-145 prostate; HL-60(TB) leukemia; IGROV1 ovarian; KM12 colon; MDA-N; OVCAR-5 ovarian; OVCAR-8 ovarian; SNB-75 CNS; SR leukemia; SW-620 colon; SN12C renal; NCI-H226 lung.
What all share (assay): NCI-60 cell line screen, 48 h

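Protocol summary: plate cells (96-well), add compound at 5 concentrations, incubate 48 h, interpolate endpoints linearly. TGI: total growth inhibition.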

Regarding `CCOC(=O)c1csc(NC(=O)CN2CCOCC2)n1`, the TGI in the test on ACHN renal, in the test with DU-145 prostate, with HL-60(TB) leukemia, in the test with IGROV1 ovarian, in the test on KM12 colon and in the test with MDA-N was above 100 µM throughout. Also, the TGI with OVCAR-5 ovarian, in the test with OVCAR-8 ovarian, in the test with SNB-75 CNS, in the test on SR leukemia and in the test on SW-620 colon was above 100 µM in each case.

On to `COC(=O)C([C@H](NC1(c2ccccc2)c2ccccc2-c2ccccc21)C(=O)OC)N(NC(=O)OCc1ccccc1)C(=O)OCc1ccccc1` (mixture of isomers), for which the TGI in the test with ACHN renal, with DU-145 prostate, in the test on HL-60(TB) leukemia, in the test on IGROV1 ovarian, in the test with KM12 colon and with MDA-N was above 100 µM each time. The TGI in the test with OVCAR-5 ovarian, with OVCAR-8 ovarian, in the test with SN12C renal, with SR leukemia and in the test with SW-620 colon was above 100 µM each time.

With `Cc1ccc(N=NC(=Nc2ccccc2)c2ccc(N(CCC#N)CCC#N)cc2)cc1`, the TGI in the test on ACHN renal is above 100 µM; in the test on DU-145 prostate it was above 100 µM; in the test with IGROV1 ovarian, 57.1 µM; in the test with KM12 colon it was above 100 µM; with MDA-N, above 100 µM; in the test with NCI-H226 lung, above 100 µM. Moreover, the TGI in the test with OVCAR-5 ovarian, in the test on OVCAR-8 ovarian, in the test on SN12C renal, in the test on SNB-75 CNS, with SR leukemia and in the test on SW-620 colon was above 100 µM in each case.

Regarding `O=c1ccc(-c2ccccc2)n[nH]1`, the TGI in the test with ACHN renal, in the test on DU-145 prostate, with HL-60(TB) leukemia, in the test on IGROV1 ovarian, with KM12 colon and in the test with MDA-N was above 100 µM in each case. Further, the TGI with OVCAR-5 ovarian, in the test on OVCAR-8 ovarian, in the test on SN12C renal, with SR leukemia and in the test with SW-620 colon was above 100 µM in each case.

For `COc1ccc(C2CC(c3c(O)ccc4ccccc34)=NN2C(C)=O)cc1OC` (stereo not given), the TGI in the test with ACHN renal is above 100 µM; with DU-145 prostate, 92 µM; with IGROV1 ovarian, above 100 µM; in the test with KM12 colon it was above 100 µM; in the test with MDA-N it was 56.4 µM; in the test on NCI-H226 lung, above 100 µM. Further, the TGI in the test on OVCAR-5 ovarian was above 100 µM; in the test with OVCAR-8 ovarian, above 100 µM; in the test on SN12C renal it was above 100 µM; with SNB-75 CNS, above 100 µM; in the test with SR leukemia, 40.6 µM; with SW-620 colon it was above 100 µM.

Consider `NC(N)=N/N=C/c1c(-c2ccc(N)cc2)nc2sccn12`, for which the TGI is 77.9 µM in the test with ACHN renal; 35.5 µM with DU-145 prostate; 47.9 µM with HL-60(TB) leukemia; above 100 µM in the test with IGROV1 ovarian; above 100 µM with KM12 colon; 60.1 µM in the test with MDA-N. Moreover, the TGI with NCI-H226 lung was above 100 µM; in the test with OVCAR-5 ovarian it was 46.8 µM; in the test on OVCAR-8 ovarian it was above 100 µM; with SN12C renal it was 48.7 µM; in the test with SR leukemia, 89.3 µM; in the test with SW-620 colon it was 68.2 µM.

`COc1cc(Br)cc2cc(-c3cn4ccsc4n3)c(=O)oc12`: the TGI was above 100 µM in the test with ACHN renal; above 100 µM in the test with DU-145 prostate; above 100 µM in the test with HL-60(TB) leukemia; above 100 µM in the test with IGROV1 ovarian; 56.5 µM in the test with KM12 colon; 42.2 µM in the test on MDA-N. The TGI with OVCAR-5 ovarian, in the test on OVCAR-8 ovarian, with SN12C renal, in the test on SNB-75 CNS, in the test on SR leukemia and in the test with SW-620 colon was above 100 µM throughout.

Regarding `COc1ccc(N/N=C2\CCOc3ccc(C)cc3C2=O)cc1`, the TGI in the test on ACHN renal is above 100 µM; in the test on DU-145 prostate, above 100 µM; in the test with HL-60(TB) leukemia it was above 100 µM; with IGROV1 ovarian, above 100 µM; with KM12 colon, above 100 µM; with MDA-N, 22.3 µM. The TGI in the test with NCI-H226 lung was 90.7 µM; in the test with OVCAR-5 ovarian it was above 100 µM; in the test with OVCAR-8 ovarian, above 100 µM; in the test with SN12C renal it was above 100 µM; with SR leukemia, above 100 µM; with SW-620 colon it was above 100 µM.

Take `CN1C(=O)C2CCC(=O)N2c2cccnc21` (stereo not given): the TGI with ACHN renal, in the test with DU-145 prostate, with HL-60(TB) leukemia, with IGROV1 ovarian, in the test on KM12 colon and with MDA-N was above 100 µM each time. For the same compound, the TGI in the test on NCI-H226 lung, with OVCAR-8 ovarian, in the test on SN12C renal, with SR leukemia and in the test on SW-620 colon was above 100 µM in each case.

In the case of `ClCCN1CCC2(CC1)SSC1(CCN(CCCl)CC1)S2`, the TGI in the test with ACHN renal was above 100 µM; in the test with DU-145 prostate, above 100 µM; in the test on HL-60(TB) leukemia, 76.8 µM; with IGROV1 ovarian it was above 100 µM; in the test with KM12 colon, above 100 µM; with MDA-N, above 100 µM. The TGI in the test with OVCAR-5 ovarian was 72 µM; with OVCAR-8 ovarian, above 100 µM; in the test with SN12C renal it was 72.8 µM; with SNB-75 CNS, above 100 µM; in the test with SR leukemia it was above 100 µM; in the test with SW-620 colon, above 100 µM.

Regarding `C=CC1(C)CCC2C(=CCC3C2(C)CC(O)C(O)C3(C)COC2OC(C(=O)O)C(O)C(O)C2O)C1` (stereo not given) (tested in a mixture with another compound), the TGI in the test on ACHN renal, in the test with DU-145 prostate, in the test on IGROV1 ovarian, with KM12 colon, in the test with MDA-N and in the test on NCI-H226 lung was above 100 µM in each case. Besides, the TGI in the test on OVCAR-5 ovarian, with OVCAR-8 ovarian, in the test with SN12C renal, with SNB-75 CNS, in the test with SR leukemia and with SW-620 colon was above 100 µM throughout.

Take `C=C1C(=O)O[C@@H]2C(=O)[C@@H](C)CCC/C(C)=C/CC[C@@]3(C)O[C@@H]3C[C@@H]12`: the TGI was above 100 µM in the test with ACHN renal; above 100 µM with DU-145 prostate; 33.4 µM in the test with HL-60(TB) leukemia; 45.7 µM in the test with IGROV1 ovarian; above 100 µM in the test with KM12 colon; above 100 µM in the test on MDA-N. For the same compound, the TGI in the test on NCI-H226 lung is above 100 µM; in the test on OVCAR-5 ovarian it was above 100 µM; in the test on OVCAR-8 ovarian, above 100 µM; in the test with SN12C renal it was above 100 µM; in the test on SNB-75 CNS it was 56.8 µM; in the test on SW-620 colon, 43.4 µM.
